Measurements: US20130023553A1, “PEGYLATED OPIOIDS WITH LOW POTENTIAL FOR ABUSE AND SIDE EFFECTS” (Nektar Therapeutics, priority 2010, published 2013)
Like-named read-outs stand apart in the source and are kept apart here.

Key:
squirrel monkeys = experiment: Monkey self-administration model of addictive potential
Excerpt: Dose-related effects of the test articles were examined, using two or more doses of each drug in 3-4 subjects in a double alternation schedule in which each unit dose (or vehicle) was used in two consecutive sessions before a change in unit dose.
Addictive potential of opioid compounds and opioid conjugates of the invention may be assessed through the use of squirrel monkey models as known in the art.
Under the double alternation schedule, each unit dose (or vehicle) was available for intravenous self-administration for two consecutive sessions before the unit dose was changed. In this way, it was possible to establish the function relating unit dose of intravenous drug to (i) number of injections per session, and/or (ii) the percentage of total responses that occur on the lever leading to self-administration (injection-lever responding, % ILR). Unit doses of drugs ranged from 0.01 to 3.2 mg/kg/injection.

human mu opioid receptor [1] = target: T1, human mu opioid receptor (Homo sapiens, UniProt P35372); experiment: biochemical; assay type: binding
T1 construct: expressed in transfected cells; host or cells: CHO cells
Method: (§1) Radioligand displacement was measured using scintillation proximity assays (SPA).
(§2) Briefly, serial dilutions of the test compounds were placed in a 96-well plate to which were added SPA beads, membrane and radioligand. The assay conditions for each opioid receptor subtype are described in Table 10 below. The plates were incubated for 8 hours-overnight at room temperature, spun at 1000 rpm to pellet the SPA beads, and radioactivity was measured using the TopCount® microplate Scintillation counter. Specific binding at each concentration of test compound was calculated by subtracting the non-specific binding measured in the presence of excess cold ligand. IC50 values were obtained by non-linear regression of specific binding versus concentration curves and Ki values were calculated using Kd values that were experimentally pre-determined for each lot of membrane preparations.

human mu opioid receptor [2] = target: T1, human mu opioid receptor; experiment: cell-based; details: for Emax: read-out: % max effect, mu opioid receptor
Method: (§3) Studies were conducted in CHO cells heterologously expressing the cloned human mu, kappa or delta opioid receptors. cAMP was measured using a cAMP HiRange homogenous time-resolved fluorescence assay (HTRF Assay), that is based on a competitive immunoassay principle (Cisbio, Cat.#62AM6PEC).
(§4) Briefly, suspensions of cells expressing either the mu, kappa or delta opioid receptors were prepared in buffer containing 0.5 mM isobutyl-methyl xanthine (IBMX). […] EC50 values were calculated for each compound from a sigmoidal dose-response plot of concentrations versus maximum response. To determine if the compounds behaved as full or partial agonists in the system, the maximal response at the highest tested concentrations of compounds were compared to that produced by a known full agonist.

[3] = target: T2, human kappa opioid receptor (Homo sapiens, UniProt P41145); experiment: biochemical; assay type: binding
T2 construct: expressed in transfected cells; host or cells: CHO cells
Method: as §1, §2

[4] = target: T2, human kappa opioid receptor; experiment: cell-based; details: for Emax: maximal response at the highest tested concentration, read-out: % max effect, kappa opioid receptor
Method: as §3, §4

[5] = Pharmacokinetics following intravenous (IV) dosing; assay type: in vivo, Sprague-Dawley rats; details: male, Sprague-Dawley, rat, plasma; for Cmax: read-out: Cmax; for Vd: read-out: Vss
Excerpt: (§5) There were 3 rats/group. All animals were food fasted overnight. […] The predose sample was collected from the JVC.
(§6) Following the last collection point, the animals were euthanized.

[6] = Pharmacokinetics following oral (PO) dosing; assay type: in vivo, Sprague-Dawley rats; details: male, Sprague-Dawley, rat, plasma; for Cmax: read-out: Cmax; for Tmax: read-out: Tmax (converted)
Excerpt: as §5, §6

Male CD-1 mice = experiment: Assessment of CNS side effects in mice (Straub tail, muscle rigidity, pinna reflex)
Excerpt: The objective of this study was to provide an approximation of the side effect profile of various oligomeric conjugates for comparison to the parent compounds by measuring various gross behavioral and physiological signs following administration of compound.
Additional evaluations included muscle rigidity and pinna reflex.
Male CD-1 mice from Charles River Laboratories, Raleigh, N.C., weighing from 16-18 grams were maintained on a regular light/dark cycle (lights on 0600-1800) with ad libitum food and water for 1 week before commencement of testing. N=2 per treatment condition, i.e., separate mice for each dose of each test article, injection was performed via a 25-gauge ⅝-inch needle on a 1-mL tuberculin syringe for the s.c. route and a 22-gauge stainless steel mouse feeding tube for the p.o. route (Becton, Dickinson & Co., Franklin Lakes, N.J.). Each treatment condition was divided about evenly between two observers. […] Test article was administered (s.c. or p.o., and the mouse was placed immediately in the observation chamber). One-half, 1, 2, and 3 hours later, the animal was observed undisturbed for gross signs such as locomotor ataxia, tremor, hyperactivity, hypoactivity, convulsions, hindlimb splay, and Straub tail, and then removed and assessed for muscle tone (normal, rigid, flaccid), pinna reflex (presence or absence), righting reflex (intact or lost), and placing (whether or not the forepaws are extended when the mouse is placed near a surface).
Each of the tables show the number of animals responding at each dose, where N=2. […] A bolded value indicates the lowest dose at which a response was detected.

[7] = CHO-K1 membranes, [3H]DAMGO 6 nM, read-out: Ki, Mu opioid receptor
[8] = maximal response at the highest tested concentration
[9] = read-out: EC50, mu opioid receptor
[10] = hydroxycodone series, 1 mg/kg IV, Mean ± SD
[11] = hydroxycodone series, 1 mg/kg IV, Mean ± SD, read-out: T1/2(z)
[12] = hydroxycodone series, 5.0 mg/kg oral, Mean ± SD

T1 sequence (P35372 whole entry): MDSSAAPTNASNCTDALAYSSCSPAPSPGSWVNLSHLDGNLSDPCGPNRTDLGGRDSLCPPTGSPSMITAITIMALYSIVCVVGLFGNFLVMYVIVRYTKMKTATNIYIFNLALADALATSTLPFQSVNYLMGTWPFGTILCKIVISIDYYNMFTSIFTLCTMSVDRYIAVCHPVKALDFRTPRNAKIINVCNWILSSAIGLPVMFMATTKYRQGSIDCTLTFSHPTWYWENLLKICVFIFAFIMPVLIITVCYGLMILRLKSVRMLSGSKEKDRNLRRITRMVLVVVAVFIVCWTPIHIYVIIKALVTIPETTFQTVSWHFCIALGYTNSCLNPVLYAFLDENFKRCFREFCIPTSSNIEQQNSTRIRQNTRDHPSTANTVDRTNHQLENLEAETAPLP
T2 sequence (P41145 whole entry): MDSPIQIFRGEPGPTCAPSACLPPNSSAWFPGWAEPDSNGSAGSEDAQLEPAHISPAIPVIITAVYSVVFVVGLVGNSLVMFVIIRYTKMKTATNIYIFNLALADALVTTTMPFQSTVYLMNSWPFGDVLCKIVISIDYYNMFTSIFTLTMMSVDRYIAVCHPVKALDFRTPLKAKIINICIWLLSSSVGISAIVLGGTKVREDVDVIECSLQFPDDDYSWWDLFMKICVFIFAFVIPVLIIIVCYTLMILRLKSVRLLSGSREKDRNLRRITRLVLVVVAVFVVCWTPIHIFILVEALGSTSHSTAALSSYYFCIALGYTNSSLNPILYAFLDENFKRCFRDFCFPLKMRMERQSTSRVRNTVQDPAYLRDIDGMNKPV

COCCOCCOCCOC1C=CC2C3Cc4ccc(O)c5c4C2(CCN3C)C1O5 (stereo not drawn) [α-6-mPEG3-O-morphine]
subjects showing addictive behavior (squirrel monkeys; 0.1 mg/kg/injection): 33% | subjects showing addictive behavior (squirrel monkeys; 0.3 mg/kg/injection): all animals | Ki (human mu opioid receptor [1]): 0.0507 µM | EC50 (human mu opioid receptor [2]): 0.27 µM | Emax (human mu opioid receptor [2]): 100%

COCCOCCOCCOCCOCCOCCOC1C=CC2C3Cc4ccc(OC)c5c4C2(CCN3C)C1O5 (stereo not drawn) [α-6-mPEG6-O-codeine]
Ki [3]: > 160 µM | Ki (human mu opioid receptor [1]; [7]): 14.2 µM | Emax [4]: 21% | Emax (human mu opioid receptor [2]; [8]): 80% | EC50 (human mu opioid receptor [2]; [9]): 97.4 µM

COCCOCCOCCOCCOCCOCCOCCOC1CCC2(O)C3Cc4ccc(OC)c5c4C2(CCN3C)C1O5 (stereo not drawn) [α-6-mPEG7-O-hydroxycodone, α-6-mPEG7-O-oxycodone]
injection lever responses (% ILR) (squirrel monkeys; 0.03 mg/kg/injection): only food lever responses | AUC [5, 10]: 238 ng·h/mL | AUC(0-inf) [5, 10]: 263 ng·h/mL | MRT last [5, 10]: 54.3 min | clearance [5, 10]: 63.3 ± 2.99 mL/min/kg | Cmax [5, 10]: 489 ± 26.5 ng/mL | half-life [5, 11]: 87 ± 3.25 min | Vd [5, 10]: 5.31 ± 0.139 L/kg | bioavailability ([6]; po, 5 mg/kg): 28.1% | AUC [6, 12]: 340 ng·h/mL | MRT last [6, 12]: 178 min | AUC(0-inf) ([6]; hydroxycodone series, 5.0 mg/kg oral, Mean ± SD, * n = 2): 370 ng·h/mL | half-life ([6]; hydroxycodone series, 5.0 mg/kg oral, Mean ± SD, * n = 2, read-out: T1/2(z)): 115 ± 29.2 min | Cmax [6, 12]: 114 ± 38 ng/mL | Tmax ([6]; hydroxycodone series, 5.0 mg/kg oral, median value): 120 min | Ki (human mu opioid receptor [1]; [7]): 1.61 µM | Emax (human mu opioid receptor [2]; [8]): 101% | EC50 (human mu opioid receptor [2]; [9]): 7.45 µM | Straub Tail, fold difference relative to parent compound (Male CD-1 mice; PO, 1/2 responding): 30 fold | Loss Pinna, fold difference relative to parent compound (Male CD-1 mice; PO, 2/2 responding): 30 fold | Muscle Rigidity, fold difference relative to parent compound (Male CD-1 mice; PO, 2/2 responding): 30 fold | Straub Tail, fold difference relative to parent compound (Male CD-1 mice; PO, 2/2 responding): 100 fold | Muscle Rigidity, fold difference relative to parent compound (Male CD-1 mice; SC, 1/2 responding): >300 fold | Straub Tail, fold difference relative to parent compound (Male CD-1 mice; SC, 1/2 responding): 10 fold | Loss Pinna, fold difference relative to parent compound (Male CD-1 mice; SC, 2/2 responding): 100 fold | Muscle Rigidity, fold difference relative to parent compound (Male CD-1 mice; SC, 2/2 responding): 30 fold | Straub Tail, fold difference (reduction in CNS activity) relative to parent compound (Male CD-1 mice; SC, 2/2 responding): 10 fold

COCCOCCOCCOCCOC1C=CC2C3Cc4ccc(OC)c5c4C2(CCN3C)C1O5 (stereo not drawn) [α-6-mPEG4-O-codeine]
AUC ([5]; iv, 1 mg/kg): 253 ng·h/mL | AUC(0-inf) ([5]; iv, 1 mg/kg): 257 ng·h/mL | MRT last ([5]; iv, 1 mg/kg): 27.5 min | clearance ([5]; iv, 1 mg/kg): 65.9 ± 10.4 mL/min/kg | Cmax ([5]; iv, 1 mg/kg): 746 ± 70 ng/mL | half-life ([5]; iv, 1 mg/kg, read-out: T1/2(2)): 57.1 ± 43.8 min | Vd ([5]; iv, 1 mg/kg): 2.3 ± 0.72 L/kg | AUC ([6]; po, 5 mg/kg): 42.2 ng·h/mL | AUC(0-inf) ([6]; po, 5 mg/kg): 44.5 ng·h/mL | MRT last ([6]; po, 5 mg/kg): 83.8 min | bioavailability ([6]; po, 5 mg/kg): 3.47% | Cmax ([6]; po, 5 mg/kg): 31.1 ± 13.1 ng/mL | half-life ([6]; po, 5 mg/kg, read-out: T1/2(2)): 118 ± 60 min | Tmax ([6]; po, 5 mg/kg): 15 min | Ki [3]: 97 µM | Ki (human mu opioid receptor [1]; [7]): 2.89 µM | Emax (human mu opioid receptor [2]; [8]): 99% | EC50 (human mu opioid receptor [2]; [9]): 22.1 µM

COCCOC1C=CC2C3Cc4ccc(OC)c5c4C2(CCN3C)C1O5 (stereo not drawn) [α-6-mPEG1-O-codeine]
AUC ([5]; iv, 1 mg/kg): 258 ng·h/mL | AUC(0-inf) ([5]; iv, 1 mg/kg): 262 ng·h/mL | MRT last ([5]; iv, 1 mg/kg): 32.2 min | clearance ([5]; iv, 1 mg/kg): 64.6 ± 8.75 mL/min/kg | Cmax ([5]; iv, 1 mg/kg): 723 ± 31.2 ng/mL | half-life ([5]; iv, 1 mg/kg, read-out: T1/2(2)): 42.1 ± 4.84 min | Vd ([5]; iv, 1 mg/kg): 2.22 ± 0.899 L/kg | Ki [3]: 54.7 µM | Ki (human mu opioid receptor [1]; [7]): 1.82 µM | Emax [4]: 51% | Emax (human mu opioid receptor [2]; [8]): 80% | EC50 (human mu opioid receptor [2]; [9]): 8.57 µM

COCCOCCOCCOC1CCC2(O)C3Cc4ccc(OC)c5c4C2(CCN3C)C1O5 (stereo not drawn) [α-6-mPEG3-O-hydroxycodone, α-6-mPEG3-O-oxycodone]
subjects showing addictive behavior (squirrel monkeys; 0.1 mg/kg/injection): 25% | subjects showing addictive behavior (squirrel monkeys; 0.3 mg/kg/injection): 50% | subjects showing addictive behavior (squirrel monkeys; 1 mg/kg/injection): 100% | AUC [5, 10]: 230 ng·h/mL | AUC(0-inf) [5, 10]: 233 ng·h/mL | MRT last [5, 10]: 32.5 min | clearance [5, 10]: 71.7 ± 4.99 mL/min/kg | Cmax [5, 10]: 746 ± 2.08 ng/mL | half-life [5, 11]: 48.5 ± 7.83 min | Vd [5, 10]: 2.62 ± 0.206 L/kg | Ki (human mu opioid receptor [1]; [7]): 0.775 µM | Emax (human mu opioid receptor [2]; [8]): 108% | EC50 (human mu opioid receptor [2]; [9]): 2.83 µM

COCCOCCOC1C=CC2C3Cc4ccc(OC)c5c4C2(CCN3C)C1O5 (stereo not drawn) [α-6-mPEG2-O-codeine]
AUC ([5]; iv, 1 mg/kg): 242 ng·h/mL | AUC(0-inf) ([5]; iv, 1 mg/kg): 243 ng·h/mL | MRT last ([5]; iv, 1 mg/kg): 31.5 min | clearance ([5]; iv, 1 mg/kg): 69 ± 7.57 mL/min/kg | Cmax ([5]; iv, 1 mg/kg): 685 ± 41 ng/mL | half-life ([5]; iv, 1 mg/kg, read-out: T1/2(2)): 35.3 ± 2.78 min | Vd ([5]; iv, 1 mg/kg): 2.25 ± 0.166 L/kg | AUC ([6]; po, 5 mg/kg): 5.85 ng·h/mL | AUC(0-inf) ([6]; po, 5 mg/kg): 6.98 ng·h/mL | MRT last ([6]; po, 5 mg/kg): 62 min | bioavailability ([6]; po, 5 mg/kg): 0.57% | Cmax ([6]; po, 5 mg/kg): 3.47 ± 0.606 ng/mL | half-life ([6]; po, 5 mg/kg, read-out: T1/2(2)): 97.6 ± 28.4 min | Tmax ([6]; po, 5 mg/kg): 15 min | Ki [3]: 22.6 µM | Ki (human mu opioid receptor [1]; [7]): 1.38 µM | EC50 [4]: 40.1 µM | Emax [4]: 59% | Emax (human mu opioid receptor [2]; [8]): 75% | EC50 (human mu opioid receptor [2]; [9]): 5.14 µM
